Results from patent publication US20160002250A1, “POLYMORPHS AND SALTS OF A COMPOUND” (FORUM Pharmaceuticals Inc., priority 2013, published 2016).
Converted amounts (≈) assume the structure as drawn. “Also recorded” adds a separate entry of the source. Marks after values point to notes of the source that are not given here.

How the values were obtained:
[1] = Gravimetric Vapour Sorption (GVS); type: physicochemical; settings: for Form change by XRPD during GVS: RH 0% to 90%; for GVS water uptake (% of mass): RH from 0% to 90%, 25° C.
Experimental: Sorption isotherms were obtained using a SMS DVS Intrinsic moisture sorption analyzer, controlled by DVS Intrinsic Control software v1.0.0.30. The sample temperature was maintained at 25° C. by the instrument controls. The humidity was controlled by mixing streams of dry and wet nitrogen, with a total flow rate of 200 ml/min. The relative humidity was measured by a calibrated Rotronic probe (dynamic range of 1.0-100% RH), located near the sample. The weight change, (mass relaxation) of the sample as a function of % RH was constantly monitored by the microbalance (accuracy ±0.005 mg).
Typically 5-30 mg of sample was placed in a tared mesh stainless steel basket under ambient conditions. The sample was loaded and unloaded at 40% relative humidity (RH) and 25° C. (typical room conditions). A moisture sorption isotherm was performed as outlined below in Table 4 (2 scans giving 1 complete cycle). The standard isotherm was performed at 25° C. at 10% RH intervals over a 0-90% RH range. Data analysis was undertaken in Microsoft Excel using DVS Analysis Suite. The sample was recovered after completion of the isotherm and re-analyzed by XRPD.

[2] = Storage at elevated humidity; type: physicochemical; settings: for Change in XRPD pattern on storage: seven days
Experimental: Samples were place on a glass slide and sealed in an airtight plastic container, along with an open beaker of saturated aqueous salt solution, and stored at a known regulated temperature. A saturated solution of NaCl was used to obtain a relative humidity of 75% at 40° C., whilst a saturated solution of potassium nitrate was used to provide 92% RH at 25° C.

[3] = Thermodynamic aqueous solubility; settings: for Thermodynamic solubility: 25° C.; for solubility thermodynamic at 24 h: 25 °C, thermodynamic from solid
Experimental: The suspension was equilibrated at 25° C. for 24 hours then the pH was measured and adjusted with either HCl or NaOH if it deviated by more than 0.3 units from the target pH. The suspension was then filtered through a glass fiber C filter. […] Different volumes of the standard, diluted and undiluted sample solutions were injected.
Analysis was performed on an Agilent HP1100 series system equipped with a diode array detector and using ChemStation software. The following buffers were prepared to carry out the solubility analyses:
pH 1.2—made up by adding 85.0 mL of 0.2M HCl(aq) to 50 mL of 0.2M KCl(aq) and making up to 200 mL. pH 4.5—made up by adding 2.99 g of NaC2H3O2.3H2O to 14.0 mL of 2N AcOH(aq) and making up to 1000 mL. pH 7.4—made up adding 39.1 mL of 0.2M NaOH(aq) to 50.0 mL of a 0.2M KH2PO4 and making up to 200 mL.

[4] = Six-week stability study (elevated humidity, 60° C., room conditions); type: physicochemical
Experimental: The stability to elevated humidity and air oxidation was investigated for both Form 1 and Form 2 of the Free Base. Samples of both materials were stored at 40° C./75% RH, 25° C./96% RH, 60° C. in contact with air and ambient conditions (25° C. in contact with air) for six weeks, and analyses by XRPD, HPLC and ^1H-NMR (for oxidation study samples only) were carried out weekly.

[5] = Solubility in solvents, slow cooling and evaporation experiments; type: physicochemical; settings: MeCN/H2O, 20 volumes, 50° C.
Experimental: 4-(4-(imidazo[1,2-b]pyridazin-2-ylmethoxy)phenyl)-2,2-dimethyl-5-(pyridin-4-yl)furan-3(2H)-one (Form 2 or Form 1; ca. 10 mg per experiment) was weighed into vials, and the stated solvents were added, in increasing portions at 50° C. With each addition, the vials were allowed to shake for ˜20 minutes. Any solutions observed were allowed to cool to room temperature. Those experiments that remained as solutions were pin-holed to allow the solvent to slowly evaporate. Any suspensions observed were subjected to heat/cool cycles, between room temperature and 50° C., four hours at each condition.

CC1(C)OC(c2ccncc2)=C(c2ccc(OCc3cn4ncccc4n3)cc2)C1=O.Cc1ccc(S(=O)(=O)O)cc1.Cc1ccc(S(=O)(=O)O)cc1 [bis-tosylate]
Form change by XRPD during GVS [1]: no accompanying form change | GVS water uptake (% of mass) [1]: 3.1% | Form change on storage ([2]; 40° C./75% RH, one week): no form change | Solubility (mg mL free form equivalent) ([3]; pH point 1.2): 32.29 mg mL free form equivalent | pH of unfiltered saturated solution ([3]; pH point 1.2): 1.21 | Solubility (mg mL free form equivalent) ([3]; pH point 4.5): 0.05 mg mL free form equivalent | pH of unfiltered saturated solution ([3]; pH point 4.5): 4.52 | Solubility (mg mL free form equivalent) ([3]; pH point 7.4): 0.05 mg mL free form equivalent | pH of unfiltered saturated solution ([3]; pH point 7.4): 7.40 | Solubility (mg mL free form equivalent) ([3]; pH point unadjusted aqueous): 29.07 mg mL free form equivalent | pH of unfiltered saturated solution ([3]; pH point unadjusted aqueous): 2.00

CC1(C)OC(c2ccncc2)=C(c2ccc(OCc3cn4ncccc4n3)cc2)C1=O [Form 1, 4-(4-(imidazo[1,2-b]pyridazin-2-ylmethoxy)phenyl)-2,2-dimethyl-5-(pyridin-4-yl)furan-3(2H)-one]
Form change by XRPD during GVS [1]: No form change | GVS water uptake (% of mass) [1]: 0.9% | Purity (area %) ([4]; 25° C./96% RH, Week 1): 96.6 area % | Purity (area %) ([4]; 25° C./96% RH, Week 2): 95.5 area % | Purity (area %) ([4]; 25° C./96% RH, Week 3): 96.5 area % | Purity (area %) ([4]; 25° C./96% RH, Week 4): 95.9 area % | Purity (area %) ([4]; 25° C./96% RH, Week 5, samples run after 24 hours in solution): 91.8* area % | Purity (area %) ([4]; 25° C./96% RH, Week 6): 95.5 area % | Stability to elevated humidity and air oxidation ([4]; 40° C./75% RH, 25° C./96% RH, 60° C. and ambient conditions, six weeks, XRPD, HPLC, 1H-NMR): No significant changes; also recorded: no significant degradation | Purity (area %) ([4]; 40° C./75% RH, Week 1): 96.9 area % | Purity (area %) ([4]; 40° C./75% RH, Week 2): 96.3 area % | Purity (area %) ([4]; 40° C./75% RH, Week 3): 96.5 area % | Purity (area %) ([4]; 40° C./75% RH, Week 4): 95.6 area % | Purity (area %) ([4]; 40° C./75% RH, Week 5, samples run after 24 hours in solution): 95.6* area % | Purity (area %) ([4]; 40° C./75% RH, Week 6): 96.8 area % | Changes after storage at 60° C. ([4]; 60° C., 4 weeks): no significant changes | Purity (area %) ([4]; 60° C., Week 1): 96.8 area % | Purity (area %) ([4]; 60° C., Week 2): 95.2 area % | Purity (area %) ([4]; 60° C., Week 3): 95.5 area % | Purity (area %) ([4]; 60° C., Week 4): 94.8 area % | Purity (area %) ([4]; 60° C., Week 5, samples run after 24 hours in solution): 96.0* area % | Purity (area %) ([4]; 60° C., Week 6): 95.9 area % | Changes by 1H-NMR or HPLC after storage at 60° C. ([4]; 60° C., six weeks): no significant changes | Purity (area %) ([4]; Room conditions, Week 1): 96.5 area % | Purity (area %) ([4]; Room conditions, Week 2): 94.9 area % | Purity (area %) ([4]; Room conditions, Week 3): 96.6 area % | Purity (area %) ([4]; Room conditions, Week 4): 96.0 area % | Purity (area %) ([4]; Room conditions, Week 5, samples run after 24 hours in solution): 95.5* area % | Purity (area %) ([4]; Room conditions, Week 6): 95.9 area % | Stability to humidity ([4]; elevated humidity and temperature conditions, after 6 weeks): No changes observed at elevated | Change in XRPD pattern on storage ([2]; 25° C./92% RH): no significant change in the XRPD pattern | Change in XRPD pattern on storage ([2]; 40° C./75% RH): no significant change in the XRPD pattern | Solubility (volumes) [5]: Almost | pH of saturated unfiltered solution ([3]; DI water): 7.67 | Thermodynamic solubility ([3]; DI water, 24 hours): 60 µg/mL | solubility thermodynamic at 24 h ([3]; deionized water, water, thermodynamic aqueous solubility, at pH 7.67 (Form 1), pH 7.23 (Form 2)): ~60 µg/mL (≈ 145 µM) | pH of saturated unfiltered solution ([3]; pH 1.2 buffer): 1.40 | Thermodynamic solubility ([3]; pH 1.2 buffer, 24 hours): 32000 µg/mL | pH of saturated unfiltered solution ([3]; pH 4.5 buffer): 4.67 | Thermodynamic solubility ([3]; pH 4.5 buffer, 24 hours): 60 µg/mL | pH of saturated unfiltered solution ([3]; pH 7.4 buffer): 7.46 | solubility thermodynamic at 24 h ([3]; pH 7.4 buffer, pH 7.4, aqueous buffer, Thermodynamic solubility, 24 hours): 50 µg/mL (≈ 121 µM)
